Test results as given in US11034715B2, “Ectonucleotidase inhibitors and methods of use thereof” (Calithera Biosciences, Inc., priority 2016, dated 2021).

Key:
recombinant CD73 = recombinant CD73 (Homo sapiens (Human), UniProt P21589); assay: Inhibition of the CD73 enzyme in vitro (soluble recombinant CD73, AMP, Malachite Green); type: biochemical; settings: recombinant CD73 0.5 nM, AMP 50 μM, 30 minutes at room temperature
Description: The concentration of inorganic phosphate was determined using a phosphate standard curve.

[1] = biological target: endogenous, cell-bound CD73 on SK-MEL-28 cells (Homo sapiens (Human), UniProt P21589); assay: Inhibition of endogenous, cell-bound CD73 enzyme activity in SK-MEL-28 cells (AMP, Malachite Green); type: cell-based; settings: 100 μM AMP, 30 minutes at room temperature
endogenous, cell-bound CD73 on SK-MEL-28 cells, sequence (P21589 27-574): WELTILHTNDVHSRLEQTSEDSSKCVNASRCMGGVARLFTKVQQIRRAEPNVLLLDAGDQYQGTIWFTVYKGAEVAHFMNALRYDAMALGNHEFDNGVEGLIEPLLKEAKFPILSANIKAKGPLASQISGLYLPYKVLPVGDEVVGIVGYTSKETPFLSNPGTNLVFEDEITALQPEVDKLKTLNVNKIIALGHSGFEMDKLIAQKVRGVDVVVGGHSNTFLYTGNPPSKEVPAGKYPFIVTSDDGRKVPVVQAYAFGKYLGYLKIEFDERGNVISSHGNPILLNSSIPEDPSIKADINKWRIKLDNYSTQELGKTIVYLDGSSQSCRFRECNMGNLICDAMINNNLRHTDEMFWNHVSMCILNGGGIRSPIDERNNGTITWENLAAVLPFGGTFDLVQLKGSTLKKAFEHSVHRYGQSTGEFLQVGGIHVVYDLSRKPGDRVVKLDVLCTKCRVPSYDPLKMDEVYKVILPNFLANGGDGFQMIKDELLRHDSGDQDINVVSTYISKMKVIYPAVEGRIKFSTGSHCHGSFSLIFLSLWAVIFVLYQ
Description: The day before the experiment, 5000 cells were plated per well in a 96-well plate. Cells were washed twice with 200 μL reaction buffer (20 mM HEPES, pH 7.4, 125 mM NaCl, 1 mM KCl, 2 mM MgCl2, 10 mM glucose) to remove residual inorganic phosphate. After washing, assays contained serial dilutions of test compounds and 100 μM of AMP in a total volume of 200 μL reaction buffer, with a final DMSO concentration ≤0.5%. After 30 minutes at room temperature, supernatant was removed from the cells. […] The concentration of inorganic phosphate was determined using a phosphate standard curve to determine IC50.

recombinant CD73, sequence (P21589 27-547): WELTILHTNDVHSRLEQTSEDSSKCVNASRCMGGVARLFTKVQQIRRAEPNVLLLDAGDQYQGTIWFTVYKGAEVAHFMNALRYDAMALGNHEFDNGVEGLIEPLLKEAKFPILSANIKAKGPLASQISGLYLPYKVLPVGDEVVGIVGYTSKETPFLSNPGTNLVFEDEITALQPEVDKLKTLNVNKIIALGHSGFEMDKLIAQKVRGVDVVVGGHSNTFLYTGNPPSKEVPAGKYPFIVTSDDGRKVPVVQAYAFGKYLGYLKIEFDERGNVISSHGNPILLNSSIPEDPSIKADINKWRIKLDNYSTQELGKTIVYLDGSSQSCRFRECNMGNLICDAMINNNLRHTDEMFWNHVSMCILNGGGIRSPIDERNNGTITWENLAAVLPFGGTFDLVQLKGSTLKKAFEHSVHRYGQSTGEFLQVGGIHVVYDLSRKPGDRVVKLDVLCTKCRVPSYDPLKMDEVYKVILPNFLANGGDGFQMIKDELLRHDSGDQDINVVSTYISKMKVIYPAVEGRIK

Row | IC50 (recombinant CD73) [nM] | IC50 [1] [nM] | SMILES
1 | 718 | 598 | CCOC(=O)C(Cc1ccc(OC(F)(F)F)cc1)(OC[C@H]1O[C@@H](n2cnc3c(N)nc(Cl)nc32)[C@@H](F)[C@@H]1O)C(=O)O (single isomer, unassigned) [compound 37]
2 | 1660 | 2560 | O=C(O)C(Cc1ccccc1)(OC[C@H]1O[C@@H](n2cnc3c(O)nc(Cl)nc32)[C@@H](F)[C@@H]1O)C(=O)O [compound 74, 2-benzyl-2-(((2R,3R,4S,5R)-5-(2-chloro-6-hydroxy-9H-purin-9-yl)-4-fluoro-3-hydroxytetrahydrofuran-2-yl)methoxy)malonic acid]
3 | 183 | – | COc1ccc(CC(OC[C@H]2O[C@@H](n3cnc4c(N)nc(Cl)nc43)[C@@H](F)[C@@H]2O)(C(=O)O)C(=O)O)cc1Cl [compound 85, 2-(((2R,3R,4S,5R)-5-(6-amino-2-chloro-9H-purin-9-yl)-4-fluoro-3-hydroxytetrahydrofuran-2-yl)methoxy)-2-(3-chloro-4-methoxybenzyl)malonic acid]
4 | 62 | – | Nc1nc(Cl)nc2c1ncn2[C@@H]1O[C@H](COC(Cc2ccc(S(N)(=O)=O)cc2)(C(=O)O)C(=O)O)[C@@H](O)[C@@H]1F [compound 86, 2-(((2R,3R,4S,5R)-5-(6-amino-2-chloro-9H-purin-9-yl)-4-fluoro-3-hydroxytetrahydrofuran-2-yl)methoxy)-2-(4-sulfamoylbenzyl)malonic acid]
5 | 83 | – | Nc1nc(Cl)nc2c1ncn2[C@@H]1O[C@H](COC(Cc2ccc(C(=O)NCCC(=O)O)cc2)(C(=O)O)C(=O)O)[C@@H](O)[C@@H]1F [compound 87, 2-(((2R,3R,4S,5R)-5-(6-amino-2-chloro-9H-purin-9-yl)-4-fluoro-3-hydroxytetrahydro-furan-2-yl)methoxy)-2-(4-((2-carboxy-ethyl)carbamoyl)benzyl) malonic acid]
6 | 238 | – | Nc1nc(Cl)nc2c1ncn2[C@@H]1O[C@H](COC(Cc2ccc3oc(C(=O)O)cc3c2)(C(=O)O)C(=O)O)[C@@H](O)[C@@H]1F [compound 88, 2-(((2R,3R,4S,5R)-5-(6-amino-2-chloro-9H-purin-9-yl)-4-fluoro-3-hydroxytetrahydro-furan-2-yl)methoxy)-2-((2-carboxybenzofuran-5-yl)methyl)malonic acid]
7 | 43 | – | Nc1nc(Cl)nc2c1ncn2[C@@H]1O[C@H](COC(Cc2ccc(OCC(F)(F)F)cc2)(C(=O)O)C(=O)O)[C@@H](O)[C@@H]1F [compound 89, 2-(((2R,3R,4S,5R)-5-(6-amino-2-chloro-9H-purin-9-yl)-4-fluoro-3-hydroxytetrahydrofuran-2-yl)methoxy)-2-(4-(2,2,2-trifluoroethoxy)benzyl) malonic acid]
8 | 172 | – | Nc1nc(Cl)nc2c1ncn2[C@@H]1O[C@H](COC(Cc2ccc(OCC(=O)O)cc2)(C(=O)O)C(=O)O)[C@@H](O)[C@@H]1F [compound 92, 2-(((2R,3R,4S,5R)-5-(6-amino-2-chloro-9H-purin-9-yl)-4-fluoro-3-hydroxytetrahydrofuran-2-yl)methoxy)-2-(4-(carboxymethoxy)benzyl) malonic acid]
9 | 906 | – | Cc1nnc(-c2ccc(CC(OC[C@H]3O[C@@H](n4cnc5c(N)nc(Cl)nc54)[C@@H](F)[C@@H]3O)(C(=O)O)C(=O)O)cc2)o1 [compound 94, 2-(((2R,3R,4S,5R)-5-(6-amino-2-chloro-9H-purin-9-yl)-4-fluoro-3-hydroxytetrahydrofuran-2-yl)methoxy)-2-(4-(5-methyl-1,3,4-oxadiazol-2-yl)benzyl) malonic acid]
10 | 105 | – | N#Cc1ccccc1-c1ccc(CC(OC[C@H]2O[C@@H](n3cnc4c(N)nc(Cl)nc43)[C@@H](F)[C@@H]2O)(C(=O)O)C(=O)O)cc1 [compound 95]
11 | 788 | – | Nc1nc(Cl)nc2c1ncn2[C@@H]1O[C@H](COC(Cc2csc3ccc(Cl)cc23)(C(=O)O)C(=O)O)[C@@H](O)[C@@H]1F [compound 96, 2-(((2R,3R,4S,5R)-5-(6-amino-2-chloro-9H-purin-9-yl)-4-fluoro-3-hydroxytetrahydrofuran-2-yl)methoxy)-2-((5-chlorobenzo[b]thiophen-3-yl)methyl)-malonic acid]
12 | 3430 | – | Nc1nc(Cl)nc2c1ncn2[C@@H]1O[C@H](COC(Cc2nc3ccccc3s2)(C(=O)O)C(=O)O)[C@@H](O)[C@@H]1F [compound 97, 2-(((2R,3R,4S,5R)-5-(6-amino-2-chloro-9H-purin-9-yl)-4-fluoro-3-hydroxytetrahydrofuran-2-yl)methoxy)-2-(benzo[d]thiazol-2-ylmethyl)malonic acid]
13 | 512 | – | CNC(=O)c1ccc(CC(OC[C@H]2O[C@@H](n3cnc4c(N)nc(Cl)nc43)[C@@H](F)[C@@H]2O)(C(=O)O)C(=O)O)cc1 [compound 98, 2-(((2R,3R,4S,5R)-5-(6-amino-2-chloro-9H-purin-9-yl)-4-fluoro-3-hydroxytetrahydrofuran-2-yl)methoxy)-2-(4-(methylcarbamoyl)benzyl) malonic acid]
14 | 42500 | – | C[C@@]1(O)[C@H](O)[C@@H](COC(Cc2ccc(C(=O)O)cc2)(C(=O)O)C(=O)O)O[C@H]1n1cnc2c(N)nc(Cl)nc21 [compound 107]
15 | 104 | 246 | Nc1nc(Cl)nc2c1ncn2[C@@H]1O[C@H](COC(Cc2ccc(F)c(F)c2F)(C(=O)O)C(=O)O)[C@@H](O)[C@@H]1F [compound 108]
16 | 601 | 1910 | O=C(O)C(Cc1ccccc1)(OC[C@H]1O[C@@H](n2cnc3c(SC4CCCC4)nc(Cl)nc32)[C@@H](F)[C@@H]1O)C(=O)O [compound 109]
17 | 66 | 361 | Nc1nc(Cl)nc2c1ncn2[C@@H]1O[C@H](COC(Cc2ccc3c(c2)OC(F)(F)O3)(C(=O)O)C(=O)O)[C@@H](O)[C@@H]1F [compound 110]
18 | 141 | 182 | NC(=O)c1ccc(CC(OC[C@H]2O[C@@H](n3cnc4c(N)nc(Cl)nc43)[C@@H](F)[C@@H]2O)(C(=O)O)C(=O)O)cc1 [compound 111]
19 | 63900 | – | C[C@@]1(F)[C@H](O)[C@@H](COC(Cc2ccc(C(=O)O)cc2)(C(=O)O)C(=O)O)O[C@H]1n1cnc2c(N)nc(Cl)nc21 [compound 117]

Row | IC50 (recombinant CD73) [nM] | IC50 [1] [nM] | SMILES
20 | > 200000 | – | CCOC(=O)C(Cc1ccccc1)(OC[C@@H]1C[C@H](F)[C@H](n2cnc3c(N)nc(Cl)nc32)O1)C(=O)OCC [compound 118]
21 | 28000 | – | Nc1nc(Cl)nc2c1ncn2[C@@H]1O[C@H](COC(Cc2ccccc2)(C(=O)O)C(=O)O)C[C@@H]1F [compound 119]
22 | 54500 | – | COc1nc(N)c2ncn([C@@H]3O[C@H](COC(Cc4ccccc4)(C(=O)O)C(=O)O)C[C@@H]3F)c2n1 [compound 120]
23 | 242 | 836 | Nc1nc(Cl)nc2c1ncn2[C@@H]1O[C@H](COC(Cc2ccc(Cl)c(OC(F)(F)F)c2)(C(=O)O)C(=O)O)[C@@H](O)[C@@H]1F [compound 125]
24 | 25300 | – | Nc1nc(Cl)nc2c1ncn2[C@@H]1O[C@H](COC(Cc2c(F)cc(Cl)cc2F)(C(=O)O)C(=O)O)[C@@H](O)[C@@H]1F [compound 126]
25 | 149 | 408 | Nc1nc(Cl)nc2c1ncn2[C@@H]1O[C@H](COC(Cc2ccccc2F)(C(=O)O)C(=O)O)[C@@H](O)[C@@H]1F [compound 127]
26 | 16500 | – | Nc1ncnc2c1ncn2[C@@H]1O[C@H](COC(Cc2cccc(OC(F)(F)F)c2)(C(=O)O)C(=O)OCCN2CCOCC2)[C@@H](O)[C@@H]1F (stereo partly shown) [compound 139]
27 | 30 | – | Nc1nc(Cl)nc2c1ncn2[C@@H]1O[C@H](COC(Cc2ccc(NC(=O)c3cccs3)cc2)(C(=O)O)C(=O)O)[C@@H](O)[C@@H]1F [compound 140]
28 | 60 | – | Nc1nc(Cl)nc2c1ncn2[C@@H]1O[C@H](COC(Cc2ccc(NC(=O)c3cccs3)cc2)(C(=O)O)C(=O)O)[C@@H](O)[C@@H]1F [compound 141]
29 | 67 | – | Nc1nc(Cl)nc2c1ncn2[C@@H]1O[C@H](COC(Cc2ccc(-c3cccnc3)cc2)(C(=O)O)C(=O)O)[C@@H](O)[C@@H]1F [compound 142]
30 | 136 | – | Nc1nc(Cl)nc2c1ncn2[C@@H]1O[C@H](COC(Cc2ccc(-c3cncnc3)cc2)(C(=O)O)C(=O)O)[C@@H](O)[C@@H]1F [compound 143]
31 | 65 | – | Nc1nc(Cl)nc2c1ncn2[C@@H]1O[C@H](COC(Cc2ccc(-c3ccc(F)cc3)cc2)(C(=O)O)C(=O)O)[C@@H](O)[C@@H]1F [compound 144]
32 | 106 | – | Nc1nc(Cl)nc2c1ncn2[C@@H]1O[C@H](COC(Cc2ccc(C(=O)O)cc2)(C(=O)O)C(=O)O)[C@H](O)[C@@H]1F [compound 145]
33 | 181 | – | Nc1nc(Cl)nc2c1ncn2[C@@H]1O[C@H](COC(Cc2ccccc2)(C(=O)O)C(=O)O)[C@@H](O)[C@@H]1Cl [compound 146]
34 | 74 | – | CS(=O)(=O)c1ccc(CC(OC[C@H]2O[C@@H](n3cnc4c(N)nc(Cl)nc43)[C@@H](F)[C@@H]2O)(C(=O)O)C(=O)O)cc1 [compound 153]
35 | 119 | – | Nc1nc(Cl)nc2c1ncn2[C@@H]1O[C@H](COC(Cc2ccccc2)(C(=O)O)C(=O)O)[C@@H](O)[C@@H]1F [compound 169]
36 | 114 | – | Nc1nc(Cl)nc2c1ncn2[C@@H]1O[C@H](COC(Cc2ccc(C(=O)O)cc2)(C(=O)O)C(=O)O)[C@@H](O)[C@@H]1F [compound 171]
37 | > 50000 | – | CCOC(=O)C(Cc1ccccc1)(OC[C@H]1O[C@@H](n2cnc3c(N)nc(Cl)nc32)[C@H](O)[C@@H]1O)c1nn[nH]n1 (stereo partly shown) [compound 193]

Row | SMILES | IC50 (recombinant CD73) [nM] | IC50 [1] [nM]
38 | Nc1nc(Cl)nc2c1ncn2[C@@H]1O[C@H](COC(Cc2ccccc2)(C(=O)O)C(=O)O)[C@@H](O)[C@H]1N [compound 55, 2-(((2R,3S,4R,5R)-4-amino-5-(6-amino-2-chloro-9H-purin-9-yl)-3-hydroxytetrahydrofuran-2-yl)methoxy)-2-benzylmalonic acid] | – | > 50000
